Test results as given in the NIST ThermoML archive (doi:10.1021/je700428f).
Numbers after ± are expanded uncertainties.

Experiments:
[1] = 101 kPa, Liquid; for viscosity: Capillary tube (Ostwald / Ubbelohde) method
[2] = xn = mol fraction of the nth substance listed; conditions: 101 kPa, Liquid

| Compound | mass density ([1]; 273.15 K) | mass density ([1]; 278.15 K) | mass density ([1]; 283.15 K) | mass density ([1]; 288.15 K) | mass density ([1]; 293.15 K) | mass density ([1]; 298.15 K) | mass density ([1]; 303.15 K) | mass density ([1]; 308.15 K) | mass density ([1]; 313.15 K) | mass density ([1]; 318.15 K) | mass density ([1]; 323.15 K) | mass density ([1]; 328.15 K) | mass density ([1]; 333.15 K) | mass density ([1]; 338.15 K) | mass density ([1]; 343.15 K) | mass density ([1]; 348.15 K) | mass density ([1]; 353.15 K) | mass density ([1]; 358.15 K) | mass density ([1]; 363.15 K) | further results |
| --- | --- | --- | --- | --- | --- | --- | --- | --- | --- | --- | --- | --- | --- | --- | --- | --- | --- | --- | --- | --- |
| COC(C)(C)C [2-methoxy-2-methylpropane] | 761.34 ± 0.5 kg/m3 | 756.14 ± 0.51 kg/m3 | 751.02 ± 0.51 kg/m3 | 745.85 ± 0.52 kg/m3 | 740.65 ± 0.53 kg/m3 | 735.4 ± 0.54 kg/m3 | 730.1 ± 0.55 kg/m3 | 724.82 ± 0.56 kg/m3 | 719.42 ± 0.56 kg/m3 | 713.96 ± 0.57 kg/m3 |  |  |  |  |  |  |  |  |  |  |
| COC(C)(C)C [2-methoxy-2-methylpropane] + CCCCCCCCC |  |  |  |  |  |  |  |  |  |  |  |  |  |  |  |  |  |  |  | mass density ([2]; 273.15 K, x1 = 1): 761.34 ± 0.5 kg/m3; mass density ([2]; 278.15 K, x1 = 1): 756.14 ± 0.51 kg/m3; mass density ([2]; 283.15 K, x1 = 1): 751.02 ± 0.51 kg/m3; mass density ([2]; 288.15 K, x1 = 1): 745.85 ± 0.52 kg/m3; mass density ([2]; 293.15 K, x1 = 1): 740.65 ± 0.53 kg/m3; mass density ([2]; 298.15 K, x1 = 1): 735.4 ± 0.54 kg/m3; mass density ([2]; 303.15 K, x1 = 1): 730.1 ± 0.55 kg/m3; mass density ([2]; 308.15 K, x1 = 1): 724.82 ± 0.56 kg/m3; mass density ([2]; 313.15 K, x1 = 1): 719.42 ± 0.56 kg/m3; mass density ([2]; 318.15 K, x1 = 1): 713.96 ± 0.57 kg/m3 |
| CCCCCCCCCC [decane] | 745.374 ± 0.54 kg/m3 | 741.257 ± 0.55 kg/m3 | 737.502 ± 0.55 kg/m3 | 733.733 ± 0.56 kg/m3 | 729.958 ± 0.56 kg/m3 | 726.174 ± 0.57 kg/m3 | 722.377 ± 0.57 kg/m3 | 718.573 ± 0.58 kg/m3 | 714.753 ± 0.59 kg/m3 | 710.92 ± 0.59 kg/m3 | 707.074 ± 0.6 kg/m3 | 703.213 ± 0.6 kg/m3 | 699.334 ± 0.61 kg/m3 | 695.439 ± 0.62 kg/m3 | 691.522 ± 0.62 kg/m3 | 687.587 ± 0.63 kg/m3 | 683.631 ± 0.64 kg/m3 | 679.651 ± 0.64 kg/m3 | 675.648 ± 0.65 kg/m3 |  |
| CCCCCCCCCC [decane] + COC(C)(C)C |  |  |  |  |  |  |  |  |  |  |  |  |  |  |  |  |  |  |  | mass density ([2]; 273.15 K, x2 = 0): 745.374 ± 0.54 kg/m3; mass density ([2]; 278.15 K, x2 = 0): 741.257 ± 0.55 kg/m3; mass density ([2]; 283.15 K, x2 = 0): 737.502 ± 0.55 kg/m3; mass density ([2]; 288.15 K, x2 = 0): 733.733 ± 0.56 kg/m3; mass density ([2]; 293.15 K, x2 = 0): 729.958 ± 0.56 kg/m3; mass density ([2]; 298.15 K, x2 = 0): 726.174 ± 0.57 kg/m3; mass density ([2]; 303.15 K, x2 = 0): 722.377 ± 0.57 kg/m3; mass density ([2]; 308.15 K, x2 = 0): 718.573 ± 0.58 kg/m3; mass density ([2]; 313.15 K, x2 = 0): 714.753 ± 0.59 kg/m3; mass density ([2]; 318.15 K, x2 = 0): 710.92 ± 0.59 kg/m3; mass density ([2]; 323.15 K, x2 = 0): 707.074 ± 0.6 kg/m3; mass density ([2]; 328.15 K, x2 = 0): 703.213 ± 0.6 kg/m3; mass density ([2]; 333.15 K, x2 = 0): 699.334 ± 0.61 kg/m3; mass density ([2]; 338.15 K, x2 = 0): 695.439 ± 0.62 kg/m3; mass density ([2]; 343.15 K, x2 = 0): 691.522 ± 0.62 kg/m3; mass density ([2]; 348.15 K, x2 = 0): 687.587 ± 0.63 kg/m3; mass density ([2]; 353.15 K, x2 = 0): 683.631 ± 0.64 kg/m3; mass density ([2]; 358.15 K, x2 = 0): 679.651 ± 0.64 kg/m3; mass density ([2]; 363.15 K, x2 = 0): 675.648 ± 0.65 kg/m3 |
| CCCCCCCCC [nonane] | 733.184 ± 0.57 kg/m3 | 729.335 ± 0.58 kg/m3 | 725.473 ± 0.59 kg/m3 | 721.603 ± 0.59 kg/m3 | 717.725 ± 0.6 kg/m3 | 713.834 ± 0.6 kg/m3 | 709.929 ± 0.61 kg/m3 | 706.011 ± 0.61 kg/m3 | 702.076 ± 0.62 kg/m3 | 698.124 ± 0.63 kg/m3 | 694.151 ± 0.63 kg/m3 | 690.165 ± 0.64 kg/m3 | 686.154 ± 0.64 kg/m3 | 682.116 ± 0.65 kg/m3 | 678.06 ± 0.66 kg/m3 | 673.979 ± 0.66 kg/m3 | 669.872 ± 0.67 kg/m3 | 665.73 ± 0.68 kg/m3 | 661.557 ± 0.68 kg/m3 | viscosity ([1]; 273.15 K): 0.972 ± 0.01 mPa·s; viscosity ([1]; 278.15 K): 0.896 ± 0.01 mPa·s; viscosity ([1]; 283.15 K): 0.828 ± 0.01 mPa·s; viscosity ([1]; 288.15 K): 0.768 ± 0.009 mPa·s; viscosity ([1]; 293.15 K): 0.716 ± 0.009 mPa·s; viscosity ([1]; 298.15 K): 0.669 ± 0.009 mPa·s; viscosity ([1]; 303.15 K): 0.628 ± 0.009 mPa·s; viscosity ([1]; 308.15 K): 0.59 ± 0.009 mPa·s; viscosity ([1]; 313.15 K): 0.555 ± 0.009 mPa·s; viscosity ([1]; 318.15 K): 0.522 ± 0.009 mPa·s; viscosity ([1]; 323.15 K): 0.493 ± 0.009 mPa·s; viscosity ([1]; 328.15 K): 0.466 ± 0.009 mPa·s; viscosity ([1]; 333.15 K): 0.442 ± 0.009 mPa·s; viscosity ([1]; 338.15 K): 0.42 ± 0.009 mPa·s; viscosity ([1]; 343.15 K): 0.399 ± 0.009 mPa·s; viscosity ([1]; 348.15 K): 0.38 ± 0.008 mPa·s; viscosity ([1]; 353.15 K): 0.362 ± 0.008 mPa·s; viscosity ([1]; 358.15 K): 0.346 ± 0.008 mPa·s |
